Test results as given in US20190137505A1 (THE ARIZONA BOARD OF REGENTS ON BEHALF OF THE UNIVERSITY OF …, priority 2015, published 2019).
“Also recorded” adds a separate entry of the source.

Biological target: T1, plasminogen (Homo sapiens, UniProt P00747)
T1 construct: Glu-Pg, uPA, tPA, fibrinogen, and chromogenic substrate for Pn were purchased from Molecular Innovations (Novi, Mich.); purchased Molecular Innovations (Novi, Mich.)
Experiment: LC-MS/MS identification of sites of MG adduction on plasminogen in vitro (Tables 1 and 12)
Settings: 500 μM MG, 24 hr
Description: 10 μg Pg was incubated with MG (50-500 μM) in tris-buffered saline (TBS) for 24 hours at 37° C. Following modification, sample volumes were increased to 150 μL and placed in 5 kDa spin filters to reduce volume and remove excess MG from solution.
MG-modified (500 μM) and unmodified Pg control (same incubation conditions without MG) were added to 250 μL amount of rehydration buffer (6M urea, 2M thiourea, 2% CHAPS, 100 mM DTT, 0.5% 3-10 ampholytes) and 5 μL of 3-10 ampholytes (Bio-Rad). Sample rehydrated with a 13 cm 4-7 pH isoelectric focusing strip (GE Healthcare) overnight. Following rehydration, strips were placed in a Bio-Rad PROTEAN IEF Cell focusing instrument. Strips were first focused for 1 hour at 500 V, and then run at a maximum of 8,000V until the strips have reached a final total of 45,000 V/hrs at which point gels are held at 500V until removed. Focused strips were removed, reduced with DTT, cysteines carbamidomethylated with iodoacetamide, and run on a 4-20% gradient Criterion gel for 55 minutes at 200V. Gels were stained for stained according to manufacturer instructions with Imperial Blue Protein (ThermoScientific, Rockford, Ill.) and destained immediately with water. Gel bands were excised and trypsin digested.
Coomassie stained gel-bands were excised and washed in ddH2O for 15 min. H2O was removed and bands were incubated in 50/50 acetonitrile (ACN):ddH2O for 15 min. ACN:ddH2O was removed and bands were incubated with ACN for 5 min. ACN was removed and gels were incubated with 100 mM ammonium bicarbonate (AMBIC). An equal volume of ACN was added to make 1:1 solution and was incubated for 15 min. The ACN/AMBIC solution was removed and remaining gel bands were dried by speed-vacuum. 10 mM dithiothreitol (DTT) was added to each band and incubated at 56° C. for 45 min. DTT was removed and sample brought to room temperature (RT). Iodoacetamide (55 mM) was added to each sample and incubated at RT for 30 min in dark. Iodoacetamide was removed and 100 mM AMBIC was added and bands were incubated for 5 min. An equal volume of ACN was added to make a 1:1 solution and incubated for 15 min. The ACN/AMBIC solution was removed and bands were dried by speed-vacuum. Bands were digested with trypsin (400 ng/band) in 50 mM AMBIC and incubated on ice for 45 min. Tryptic solution was removed and 50 mM AMBIC was added to each band and incubated overnight at 37° C. to complete digestion. Digests were acidified using 10% trifluoroacetic acid (TFA). Supernatant was saved. Band was covered with TFA:ACN (0.1%:60%) and sonicated at 20° C. water bath for 30 min. Supernatant was combined with previous fraction. Sampled were speed vacuumed to a final volume of 10 μL prior to LC-MS/MS analysis on an LTQ Orbitrap Velos mass spectrometer as described below.
LC-MS/MS analysis of in-gel trypsin digested-proteins (Shevchenko et al., 1996) was carried out using a LTQ Orbitrap Velos mass spectrometer (Thermo Fisher Scientific, San Jose, Calif.) equipped with an Advion nanomate ESI source (Advion, Ithaca, N.Y.), following ZipTip (Millipore, Billerica, Mass.) C18 sample clean-up according to the manufacturer's instructions. Peptides were eluted from a C18 precolumn (100-μm id×2 cm, Thermo Fisher Scientific) onto an analytical column (75-μm ID×10 cm, C18, Thermo Fisher Scientific) using a 5-20% gradient of solvent B (acetonitrile, 0.1% formic acid) over 65 minutes, followed by a 20-35% gradient of solvent B over 25 minutes, all at a flow rate of 400 nl/min. Solvent A consisted of water and 0.1% formic acid. Data dependent scanning was performed by the Xcalibur v 2.1.0 software (Andon et al., 2002) using a survey mass scan at 60,000 resolution in the Orbitrap analyzer scanning m/z 350-1600, followed by collision-induced dissociation (CID) tandem mass spectrometry (MS/MS) of the fourteen most intense ions in the linear ion trap analyzer. […]

T1 sequence (P00747 20-810 limits assumed): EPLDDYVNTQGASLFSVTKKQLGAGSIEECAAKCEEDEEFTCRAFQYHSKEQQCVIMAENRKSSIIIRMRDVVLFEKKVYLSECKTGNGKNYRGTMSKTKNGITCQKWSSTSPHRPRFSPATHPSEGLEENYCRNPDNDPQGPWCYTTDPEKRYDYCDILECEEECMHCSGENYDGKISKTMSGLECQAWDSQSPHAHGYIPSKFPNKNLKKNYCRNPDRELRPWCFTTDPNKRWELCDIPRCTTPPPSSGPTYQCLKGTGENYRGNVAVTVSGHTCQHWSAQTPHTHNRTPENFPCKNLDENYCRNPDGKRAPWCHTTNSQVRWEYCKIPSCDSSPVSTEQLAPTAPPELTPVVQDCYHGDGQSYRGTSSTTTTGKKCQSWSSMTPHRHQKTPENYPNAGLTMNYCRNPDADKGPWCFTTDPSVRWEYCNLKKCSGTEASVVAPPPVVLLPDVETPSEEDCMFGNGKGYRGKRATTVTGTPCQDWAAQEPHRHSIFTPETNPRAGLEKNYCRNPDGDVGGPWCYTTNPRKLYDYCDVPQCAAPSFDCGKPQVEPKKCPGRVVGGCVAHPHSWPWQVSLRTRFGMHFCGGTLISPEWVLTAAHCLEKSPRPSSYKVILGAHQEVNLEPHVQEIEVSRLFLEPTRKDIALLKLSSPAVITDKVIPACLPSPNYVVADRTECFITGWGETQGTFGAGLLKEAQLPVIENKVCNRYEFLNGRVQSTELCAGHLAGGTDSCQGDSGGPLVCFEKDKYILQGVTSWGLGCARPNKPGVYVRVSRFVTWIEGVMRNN

SMILES: CC(=O)C=O [MG, Methylglyoxal]
- Modifications (plasminogen site 43): MG-HI
- Modifications (plasminogen site 61): MG-DH; also recorded: MG-HI
- Modifications (plasminogen site 68): MG-DH; also recorded: MG-HI
- Modifications (plasminogen site 70): MG-DH; also recorded: MG-HI
- Modifications (plasminogen site 115): MG-HI
- Modifications (plasminogen site 117): MG-HI; also recorded: MG-DH
- Modifications (plasminogen site 134): MG-DH
- Modifications (plasminogen site 220): MG-DH; also recorded: MG-HI
- Modifications (plasminogen site 223): MG-HI
- Modifications (plasminogen site 234): MG-DH
- Modifications (plasminogen site 242): MG-DH; also recorded: MG-HI
- Modifications (plasminogen site 265): MG-DH; also recorded: MG-HI
- Modifications (plasminogen site 290): MG-HI
- Modifications (plasminogen site 312): MG-DH; also recorded: MG-HI
- Modifications (plasminogen site 324): MG-HI; also recorded: MG-DH
- Modifications (plasminogen site 389): MG-HI; also recorded: MG-DH
- Modifications (plasminogen site 474): MG-HI; also recorded: MG-DH
- Modifications (plasminogen site 493): MG-HI; also recorded: MG-DH
- Modifications (plasminogen site 504): MG-HI; also recorded: MG-DH
- Modifications (plasminogen site 530): MG-HI; also recorded: MG-DH
- Modifications (plasminogen site 561): MG-HI; also recorded: MG-DH
- Modifications (plasminogen site 582): MG-HI; also recorded: MG-DH
- Modifications (plasminogen site 644): MG-HI
- Modifications (plasminogen site 712): MG-DH; also recorded: MG-HI
- Modifications (plasminogen site 767): MG-HI; also recorded: MG-DH
- Modifications (plasminogen site 779): MG-HI; also recorded: MG-DH
- Modifications (plasminogen site 789): MG-HI; also recorded: MG-DH
- Modifications (plasminogen sites 115/117 on one peptide, two adducts): MG-HI;; also recorded: MG-HI; also recorded: MG-DH;; also recorded: MG-DH
- Modifications (plasminogen sites 220/223 on one peptide, two adducts): MG-HI;; also recorded: MG-DH; also recorded: MG-HI; also recorded: MG-DH;
- Modifications (plasminogen sites 312/324 on one peptide, two adducts): MG-DH;; also recorded: MG-HI; also recorded: MG-DH; also recorded: MG-HI;
- Modifications (plasminogen sites 474/493 on one peptide, two adducts): MG-DH;; also recorded: MG-HI; also recorded: MG-HI;
- Modifications (plasminogen sites 489/504 on one peptide, two adducts): MG-HI;; also recorded: MG-DH
- Modifications (plasminogen sites 779/789 on one peptide, two adducts): MG-HI;; also recorded: MG-DH; also recorded: MG-HI; also recorded: MG-DH;
- Spectra Observed (site 43, MG-HI, C(+57)EEDEEFTC(+57)RAFQYHSK): 1
- Spectra Observed (site 61, MG-DH, EQQC(+57)VIMAENRK): 3
- Spectra Observed (site 61, MG-HI, EQQC(+57)VIMAENRK): 4
- Spectra Observed (site 68, MG-DH, SSIIIRMR): 2
- Spectra Observed (site 68, MG-HI, KSSIIIRMR): 1
- Spectra Observed (site 70, MG-DH, M(+16)RDVVLFEK): 2
- Spectra Observed (site 70, MG-DH, MRDVVLFEK): 7
- Spectra Observed (site 70, MG-DH, MRDVVLFEKK): 2
- Spectra Observed (site 70, MG-HI, M(+16)RDVVLFEK): 4
- Spectra Observed (site 70, MG-HI, MRDVVLFEK): 4
- Spectra Observed (site 70, MG-HI, MRDVVLFEKK): 4
- Spectra Observed (site 115, MG-HI, WSST SPHRPR): 4
- Spectra Observed (site 117, MG-DH, WSSTSPHRPRFSPATHPSEGLEENYC(+57)R): 9
- Spectra Observed (site 117, MG-HI, WSSTSPHRPRFSPATHPSEGLEENYC(+57)R): 9
- Spectra Observed (site 134, MG-DH, FSPATHPSEGLEENYCRNPDNDPQGPWC(+57)YTTDPEKR): 1
- Spectra Observed (site 220, MG-DH, NPDRELRPWC(+57)FTTDPNK): 1
- Spectra Observed (site 220, MG-DH, NPDRELRPWC(+57)FTTDPNKR): 6
- Spectra Observed (site 220, MG-HI, NPDRELRPWC(+57)FTTDPNK): 5
- Spectra Observed (site 223, MG-HI, ELRPWC(+57)FTTDPNKR): 4
- Spectra Observed (site 223, MG-HI, NPDRELRPWC(+57)FTTDPNKR): 11
- Spectra Observed (site 234, MG-DH, RWELC(+57)DIPR0): 2
- Spectra Observed (site 242, MG-DH, WELC(+57)DIPRC(+57)TTPPPSSGPTYQC(+57)LK): 6
- Spectra Observed (site 242, MG-HI, WELC(+57)DIPRC(+57)TTPPPSSGPTYQC(+57)LK): 3
- Spectra Observed (site 265, MG-DH, GTGENYRGNVAVTVSGHTC(+57)QHWSAQTPHTHNR): 7
- Spectra Observed (site 265, MG-HI, GTGENYRGNVAVTVSGHTC(+57)QHWSAQTPHTHNR): 5
- Spectra Observed (site 290, MG-HI, GNVAVTVSGHTC(+57)QHWSAQTPHTHNRTPENFPC(+57)K, MH+ 3809.751): 12
- Spectra Observed (site 290, MG-HI, GNVAVTVSGHTC(+57)QHWSAQTPHTHNRTPENFPC(+57)K, MH+ 3827.75): 4
